# Test results published in patent publication US20260256753A1, “USE OF AN OREXIN 2 RECEPTOR AGONIST FOR IMPROVING RESPIRATORY FUNCTION DURING SLEEP” (TAKEDA PHARMACEUTICAL COMPANY LIMITED, priority 2023, published 2026).
# Assays:
# genioglossus muscle = experiment: EMG recording of the genioglossus muscle in anesthetized rats; type: in vivo, rat; details: 1 mg/kg intravenous, 10 min after administration, versus vehicle, FIG. 5
# Method: EMG recording of the genioglossus muscle was conducted as described previously (G. H. Zhang, et al.) with slight modifications. Rats were anaesthetized with urethane (2.0 g/kg, intraperitoneal injection). Anesthetic depth was assessed by the reflex responses to paw pinches. The tail vein was cannulated for intravenous drug administration. Each rat was laid on a servo-controlled electric heating pad. The body temperature of the rat was monitored with a rectal probe of the pad and kept at around 37° C. […] After 10 min of baseline recording, vehicle (0.1% [w/v] Polysorbate 80 and 20% [w/v] Captisol solution) or Compound C was administered intravenously and then EMG was recorded for 10 min. EMG was amplified 1,000-fold, band-pass filtered (100-5,000 Hz) using Microelectrode AC Amplifier (Model 1800; A-M systems, Carlsborg, WA, USA), digitized using AD converter (Power 1401; Cambridge Electronic Design, Cambridge, UK), recorded using Spike2 software (Cambridge Electronic Design), and then rectified and integrated with a time constant decay (100 ms) using LabChart software (AD Instruments). […] Bursts were then automatically detected, and burst amplitude was measured. […]
# [1] = Plasma concentration of Compound C after intravenous and oral administration in rats; type: in vivo, rat; details: intravenous 0.3 and 1 mg/kg versus oral 3 and 10 mg/kg, respectively
# Method: Due to technical feasibility of the experiment, anesthetized rats were used for EMG recording of the diaphragm. Compound C was administered intravenously to anesthetized rats in this experiment. To understand the relationship between the plasma effective concentration of Compound C for arousal and that for activation of the diaphragm, plasma concentration of Compound C after intravenous administration was measured. The maximum plasma concentrations of Compound C after intravenous administration at 0.3 and 1 mg/kg were similar to those after oral administration at 3 and 10 mg/kg, respectively.
# [2] = test system: patients with obstructive sleep apnea; experiment: Phase 1b crossover study of overnight intravenous infusion in obstructive sleep apnea: safety and tolerability; type: in vivo, human; details: for placebo adjusted LS mean change in DBP / placebo adjusted LS mean change in SBP: at predose
# Method: A phase 1b, randomized, double-blind, placebo-controlled, 3-period crossover study was conducted to evaluate the safety, tolerability, pharmacodynamic, and pharmacokinetic effects of overnight intravenous COMPOUND A in patients with obstructive sleep apnea (OSA). This study was planned to further evaluate COMPOUND A intravenous administration (IV) in adults with OSA, hypothesizing that nonwake-promoting exposures of COMPOUND A would increase genioglossal muscle tone and increase airway patency via the increasing activity of hypoglossal motoneurons. The main goal of this study was to evaluate the mechanistic potential of OX2R agonism for treatment of OSA using COMPOUND A IV infusion to determine appropriate use in future trials with an oral OX2R agonist.
# Participants were male or female, aged 18 to 75 years inclusive, with OSA diagnosed according to the International Classification of Sleep Disorders-3 (ICSD-3) criteria and an apnea hypopnea index (AHI) of 12 to 50 events/hour of sleep. The study consisted of a screening period, 3 treatment periods separated by 2 washout periods, and a follow-up period. A total of 13 participants were enrolled and randomized, of which 12 (92.3%) participants completed all planned doses of study drug and the study.
# Eligible participants were randomly assigned (in a double-blinded manner) to 1 of 6 treatment sequences. In each treatment period, participants underwent 3 UACI assessments, a 10-minute evaluation that tested the key biological mechanism that causes OSA (as described by Osman, A. M., et al., 2019, Sleep, 42 (7), 1-10), followed by an overnight polysomnography (PSG). After the first baseline UACI assessment (U1), an IV infusion regimen of COMPOUND A or placebo was administered over approximately 10 hours to achieve specific plasma concentrations to evaluate the effect of COMPOUND A on the UACI and PSG metrics. Target plasma concentrations for the low-dose COMPOUND A IV regimen were 10 ng/mL for the second UACI (U2), 30 ng/ml for the third UACI (U3), and 10 ng/ml for the overnight PSG. Target plasma concentrations for the high-dose COMPOUND A IV regimen were 30 ng/mL for the U2, 90 ng/mL for the U3, and 30 ng/ml for the overnight PSG.
# To achieve the target exposures for the UACI assessments (U2 and U3), there was a 20-minute loading period, followed by a 15-minute maintenance period for each. The overnight maintenance dose (approximately 490 minutes) covered the duration of a standard overnight PSG (approximately 8 hours). Doses were selected to cover the potential pharmacologically active concentration range for upper airway collapsibility. The concentration of COMPOUND A in solution was such that participants received the same volume of fluid in the low-dose COMPOUND A regimen, the high-dose COMPOUND A regimen, and placebo, allowing the study to be double-blinded and ensuring all participants were infused with the same volume of fluid.
# On Day 1 of each treatment period, participants checked in approximately 3 hours prior to the scheduled dosing time. The procedure started in the evening to reduce the confounding factors of endogenous OX levels on assessments. Start time was adjusted based on the patient's usual bedtime. Following a physical examination, urine drug screen, and alcohol breathalyzer test, participants were fitted with an IV catheter for placebo/COMPOUND A infusion, electroencephalogram (EEG) electrodes to monitor wakefulness, choanal and epiglottic pressure sensors, and a nasal mask and pneumotachograph to measure airflow (Osman, et al. 2019).
# Following the baseline UACI measurements, IV infusion of placebo or COMPOUND A began. COMPOUND A was tested at 2 concentrations in a stepwise manner, consisting of a 20 minute loading period followed by a 15 minute maintenance period per step. The UACI was tested at each concentration during the maintenance period. […]
Structure (SMILES),burst amplitude of the genioglossus muscle (genioglossus muscle),maximum plasma concentrations after intravenous administration compared with oral administration [1],"participants who experienced drug-related TEAEs ([2]; all treatment periods (low-dose, high-dose, placebo), 13 participants)","number of drug-related TEAEs ([2]; all treatment periods (low-dose, high-dose, placebo), all mild)",deaths or serious TEAEs ([2]; during the study),drug related TEAEs ([2]; high dose regimen),placebo adjusted LS mean change in DBP ([2]; high dose regimen),placebo adjusted LS mean change in SBP ([2]; high dose regimen),consequence of TEAE of blood pressure increased ([2]; low dose regimen),placebo adjusted LS mean change in DBP ([2]; low dose regimen),placebo adjusted LS mean change in SBP ([2]; low dose regimen),dose related trend of most frequent TEAE (headache) ([2]; low versus high dose regimen),"tolerability ([2]; low-dose and high-dose IV regimens, adult participants with OSA)",drug-related TEAE of blood pressure increased (number) ([2]; low-dose regimen),drug-related TEAE of myalgia (number) ([2]; low-dose regimen),drug-related TEAEs of headache (number) ([2]; low-dose regimen and placebo together),"intensity of TEAEs ([2]; whole study, moderate headache on low dose regimen, not related to study drug)"
"CC(C)(O)C(=O)N1CC(F)(F)[C@H](NS(C)(=O)=O)[C@@H]1Cc1cccc(-c2cc(F)cc(F)c2)c1F [Compound C, N-{(2S,3R)-4,4-difluoro-1-(2-hydroxy-2-methylpropanoyl)-2-[(2,3′,5′-trifluoro[1,1′-biphenyl]-3-yl)methyl]pyrrolidin-3-yl}methanesulfonamide]",significantly increased burst amplitude,similar,,,,,,,,,,,,,,,
"COC(=O)N1CCC[C@H](NS(C)(=O)=O)[C@@H]1CO[C@H]1CC[C@@H](c2ccccc2)CC1 (relative stereo) [Compound A, methyl(2R,3S)-3-((methylsulfonyl)amino)-2-(((cis-4-phenylcyclohexyl)oxy)methyl) piperidine-1-carboxylate]",,,23.1%,4,No deaths or serious TEAEs,no drug related TEAEs,1.84 mmHg,9.01 mmHg,led to study drug discontinuation,0.29 mmHg,2.44 mmHg,no dose related trend was observed,generally well tolerated with no safety concerns,1,1,2,mild in intensity except for 1 moderate TEAE of headache
